ChEMBL document CHEMBL5518215, “Unlocking Antibacterial Potential: Key-Site-Based Regulation of Antibacterial Spectrum of Peptides” (J Med Chem, 2024)

Columns and labels:
Listeria monocytogenes [1] = test: Antimicrobial activity against Listeria monocytogenes 1.10753 assessed as bacterial killing measured after 16 hrs incubation; assay type: functional
[2] = Antimicrobial activity against Salmonella pullorum C7913 assessed as absence bacterial growth measured after 18 to 24 hrs incubation by NCCLS method; assay type: functional, Salmonella enterica subsp. enterica serovar Pullorum; conditions: Salmonella enterica, time 18-24 hrs
Bacillus cereus [3] = test: Antimicrobial activity against Bacillus cereus 1.932 assessed as absence bacterial growth measured after 18 to 24 hrs incubation by NCCLS method; assay type: functional; conditions: time 18-24 hrs
Escherichia coli [4] = test: Antimicrobial activity against Escherichia coli 25922 assessed as absence bacterial growth measured after 18 to 24 hrs incubation in presence of KCl by NCCLS method; assay type: functional; conditions: time 18-24 hrs
Escherichia coli [5] = test: Antimicrobial activity against Escherichia coli 25922 assessed as absence bacterial growth measured after 18 to 24 hrs incubation by NCCLS method; assay type: functional; conditions: time 18-24 hrs
[6] = Cytotoxicity against human HEK-293T cells assessed as cell survival rate measured after 8 hrs by MTT assay; assay type: toxicity, cell-based
Staphylococcus aureus [7] = test: Antimicrobial activity against Staphylococcus aureus 29213 assessed as absence bacterial growth measured after 18 to 24 hrs incubation by NCCLS method; assay type: functional; conditions: time 18-24 hrs
Staphylococcus aureus [8] = test: Antimicrobial activity against Staphylococcus aureus 25923 assessed as bacterial killing measured after 16 hrs incubation; assay type: functional
Escherichia coli [9] = test: Antimicrobial activity against Escherichia coli K88 assessed as bacterial killing measured after 16 hrs incubation; assay type: functional
Enterococcus faecalis [10] = test: Antimicrobial activity against Enterococcus faecalis 29212 assessed as absence bacterial growth measured after 18 to 24 hrs incubation by NCCLS method; assay type: functional; conditions: time 18-24 hrs
Staphylococcus aureus [11] = test: Antimicrobial activity against Methicillin-resistant Staphylococcus aureus 43300 assessed as bacterial killing measured after 16 hrs incubation; assay type: functional
Escherichia coli [12] = test: Antimicrobial activity against Escherichia coli 25922 assessed as absence bacterial growth measured after 18 to 24 hrs incubation in presence of NH4Cl by NCCLS method; assay type: functional; conditions: time 18-24 hrs
Erythrocyte = test: Hemolytic activity in human RBC at effective concentration measured after 1 hr by microplate reader analysis; assay type: toxicity, cell-based
Salmonella typhimurium [13] = test: Antimicrobial activity against Salmonella typhimurium C7731 assessed as bacterial killing measured after 16 hrs incubation; assay type: functional, Salmonella enterica subsp. enterica serovar Typhimurium; conditions: Salmonella enterica
Acinetobacter baumannii [14] = test: Antimicrobial activity against Acinetobacter baumannii 1.6769 assessed as bacterial killing measured after 16 hrs incubation; assay type: functional
[15] = Cytotoxicity against human HEK-293T cells assessed as cell survival rate at 64 uM measured after 8 hrs by MTT assay relative to control; assay type: toxicity, cell-based; conditions: read-out: Activity
[16] = Hemolytic activity in human RBC at effective concentration at 128 uM measured after 1 hr by microplate reader relative to control; assay type: toxicity, cell-based, Erythrocyte; conditions: human red blood cells (erythrocytes), read-out: Activity
Escherichia coli [17] = test: Antimicrobial activity against Escherichia coli 25922 assessed as absence bacterial growth measured after 18 to 24 hrs incubation in presence of NaCl by NCCLS method; assay type: functional; conditions: time 18-24 hrs
Escherichia coli [18] = test: Antimicrobial activity against Escherichia coli 25922 assessed as absence bacterial growth measured after 18 to 24 hrs incubation in presence of 25% serum by NCCLS method; assay type: functional; conditions: time 18-24 hrs
Pseudomonas aeruginosa [19] = test: Antimicrobial activity against Pseudomonas aeruginosa 27853 assessed as absence bacterial growth measured after 18 to 24 hrs incubation by NCCLS method; assay type: functional; conditions: time 18-24 hrs
Staphylococcus aureus [20] = test: Antimicrobial activity against Staphylococcus aureus 29213 assessed as bacterial killing measured after 16 hrs incubation; assay type: functional
Escherichia coli [21] = test: Antimicrobial activity against Escherichia coli 25922 assessed as absence bacterial growth measured after 18 to 24 hrs incubation in presence of ZnCl2 by NCCLS method; assay type: functional; conditions: time 18-24 hrs
Salmonella typhimurium [22] = test: Antimicrobial activity against Salmonella typhimurium 14028 assessed as bacterial killing measured after 16 hrs incubation; assay type: functional, Salmonella enterica subsp. enterica serovar Typhimurium; conditions: Salmonella enterica
Staphylococcus aureus [23] = test: Antimicrobial activity against Staphylococcus aureus 29213 assessed as absence bacterial growth measured after 18 to 24 hrs incubation by NCCLS m; assay type: functional; conditions: time 18-24 hrs
Escherichia coli [24] = test: Antimicrobial activity against Escherichia coli K88 assessed as absence bacterial growth measured after 18 to 24 hrs incubation by NCCLS method; assay type: functional; conditions: time 18-24 hrs
[25] = Cytotoxicity against mouse RAW264.7 cells assessed as cell survival rate measured after 8 hrs by MTT assay; assay type: toxicity, cell-based
Pseudomonas aeruginosa [26] = test: Antimicrobial activity against Pseudomonas aeruginosa 27853 assessed as bacterial killing measured after 16 hrs incubation; assay type: functional
Enterococcus faecalis [27] = test: Antimicrobial activity against Enterococcus faecalis 29212 assessed as bacterial killing measured after 16 hrs incubation; assay type: functional
Listeria monocytogenes [28] = test: Antimicrobial activity against Listeria monocytogenes 1.10753 assessed as absence bacterial growth measured after 18 to 24 hrs incubation by NCCLS method; assay type: functional; conditions: time 18-24 hrs
Escherichia coli [29] = test: Antimicrobial activity against Escherichia coli 25922 assessed as absence bacterial growth measured after 18 to 24 hrs incubation in presence of MgCl2 by NCCLS method; assay type: functional; conditions: time 18-24 hrs
[30] = system: Staphylococcus epidermidis; test: Antimicrobial activity against Staphylococcus epidermidis 12228 assessed as bacterial killing measured after 16 hrs incubation; assay type: functional
Acinetobacter baumannii [31] = test: Antimicrobial activity against Acinetobacter baumannii 1.6769 assessed as absence bacterial growth measured after 18 to 24 hrs incubation by NCCLS method; assay type: functional; conditions: time 18-24 hrs
Escherichia coli [32] = test: Antimicrobial activity against Escherichia coli 25922 assessed as absence bacterial growth measured after 18 to 24 hrs incubation in presence of FeCl3 by NCCLS method; assay type: functional; conditions: time 18-24 hrs
Salmonella typhimurium [33] = test: Antimicrobial activity against Salmonella typhimurium 14028 assessed as absence bacterial growth measured after 18 to 24 hrs incubation by NCCLS method; assay type: functional, Salmonella enterica subsp. enterica serovar Typhimurium; conditions: Salmonella enterica, time 18-24 hrs
Escherichia coli [34] = test: Antimicrobial activity against Escherichia coli 25922 assessed as bacterial killing measured after 16 hrs incubation; assay type: functional
Staphylococcus aureus [35] = test: Antimicrobial activity against Methicillin-resistant Staphylococcus aureus 43300 assessed as absence bacterial growth measured after 18 to 24 hrs incubation by NCCLS method; assay type: functional; conditions: time 18-24 hrs
Escherichia coli [36] = test: Antimicrobial activity against Escherichia coli 25922 assessed as absence bacterial growth measured after 18 to 24 hrs incubation in presence of 12.5% serum by NCCLS method; assay type: functional; conditions: time 18-24 hrs
Bacillus cereus [37] = test: Antimicrobial activity against Bacillus cereus 1.932 assessed as bacterial killing measured after 16 hrs incubation; assay type: functional
[38] = Cytotoxicity against porcine IPEC-J2 cells assessed as cell survival rate at 64 uM measured after 8 hrs by MTT assay relative to control; assay type: toxicity, cell-based, Sus scrofa; conditions: pig, read-out: Activity
[39] = Antimicrobial activity against Salmonella pullorum C7913 assessed as bacterial killing measured after 16 hrs incubation; assay type: functional, Salmonella enterica subsp. enterica serovar Pullorum; conditions: Salmonella enterica
Salmonella typhimurium [40] = test: Antimicrobial activity against Salmonella typhimurium C7731 assessed as absence bacterial growth measured after 18 to 24 hrs incubation by NCCLS method; assay type: functional, Salmonella enterica subsp. enterica serovar Typhimurium; conditions: Salmonella enterica, time 18-24 hrs
Escherichia coli [41] = test: Antimicrobial activity against Escherichia coli 25922 assessed as absence bacterial growth measured after 18 to 24 hrs incubation in presence of 50% serum by NCCLS method; assay type: functional; conditions: time 18-24 hrs
[42] = Cytotoxicity against porcine IPEC-J2 cells assessed as cell survival rate measured after 8 hrs by MTT assay; assay type: toxicity, cell-based, Sus scrofa; conditions: pig
[43] = system: Staphylococcus epidermidis; test: Antimicrobial activity against Staphylococcus epidermidis 12228 assessed as absence bacterial growth measured after 18 to 24 hrs incubation by NCCLS method; assay type: functional; conditions: time 18-24 hrs

H-GKLWLKGGKLWLKGGKLWLKA-NH2
32 µM: MIC (Escherichia coli [17]) | MBC (Staphylococcus aureus [20]) | MIC (Escherichia coli [36])
2 µM: MIC [2] | MIC (Escherichia coli [4]) | MIC (Escherichia coli [5]) | MIC (Escherichia coli [12]) | MIC (Escherichia coli [21]) | MIC (Escherichia coli [32]) | MIC (Salmonella typhimurium [33])
> 64 µM: IC50 at 8 h [6] | IC50 at 8 h [25] | IC50 at 8 h [42]
> 32 µM: MBC (Listeria monocytogenes [1]) | MIC (Bacillus cereus [3]) | MBC (Staphylococcus aureus [8]) | MIC (Escherichia coli [18]) | MIC (Staphylococcus aureus [23]) | MIC (Listeria monocytogenes [28]) | MBC (Bacillus cereus [37]) | MIC (Escherichia coli [41])
4 µM: MBC (Acinetobacter baumannii [14]) | MIC (Pseudomonas aeruginosa [19]) | MBC (Pseudomonas aeruginosa [26]) | MIC (Acinetobacter baumannii [31]) | MBC (Escherichia coli [34]) | MBC [39] | MIC (Salmonella typhimurium [40])
8 µM: MBC (Staphylococcus aureus [11]) | MBC (Salmonella typhimurium [13]) | MBC (Salmonella typhimurium [22]) | MIC (Escherichia coli [29]) | MBC [30] | MIC (Staphylococcus aureus [35]) | MIC [43]
> 128 µM: HC10 (Erythrocyte)
16 µM: MIC (Staphylococcus aureus [7]) | MIC (Enterococcus faecalis [10]) | MBC (Enterococcus faecalis [27])
< 10%: hemolysis at 1 h, 128 µM [16]
0.5 µM: MBC (Escherichia coli [9]) | MIC (Escherichia coli [24])
> 80%: viability at 8 h, 64 µM [15] | viability at 8 h, 64 µM [38]

H-LKLWLKGGKLWLKGGKLWLKG-NH2
2 µM: MIC [2] | MBC [39]
1 µM: MBC (Escherichia coli [9]) | MIC (Escherichia coli [24])
< 10%: hemolysis at 1 h, 128 µM [16]
> 32 µM: MBC (Listeria monocytogenes [1]) | MIC (Bacillus cereus [3]) | MIC (Staphylococcus aureus [7]) | MBC (Staphylococcus aureus [8]) | MIC (Enterococcus faecalis [10]) | MBC (Staphylococcus aureus [11]) | MBC (Salmonella typhimurium [13]) | MIC (Escherichia coli [17]) | MIC (Escherichia coli [18]) | MBC (Staphylococcus aureus [20]) | MBC (Salmonella typhimurium [22]) | MIC (Staphylococcus aureus [23]) | MBC (Enterococcus faecalis [27]) | MIC (Listeria monocytogenes [28]) | MIC (Escherichia coli [29]) | MBC [30] | MIC (Salmonella typhimurium [33]) | MIC (Staphylococcus aureus [35]) | MBC (Bacillus cereus [37]) | MIC (Salmonella typhimurium [40]) | MIC (Escherichia coli [41]) | MIC [43]
8 µM: MIC (Escherichia coli [4]) | MIC (Escherichia coli [12]) | MIC (Escherichia coli [21]) | MIC (Escherichia coli [32])
32 µM: MIC (Pseudomonas aeruginosa [19]) | MBC (Pseudomonas aeruginosa [26]) | MIC (Escherichia coli [36])
4 µM: MIC (Escherichia coli [5])
> 64 µM: IC50 at 8 h [6] | IC50 at 8 h [25]
> 128 µM: HC10 (Erythrocyte)
33.4 µM: IC50 at 8 h [42]
16 µM: MBC (Acinetobacter baumannii [14]) | MIC (Acinetobacter baumannii [31]) | MBC (Escherichia coli [34])
